In US11707454B2, “Topical roflumilast formulation having antifungal properties” (ARCUTIS BIOTHERAPEUTICS, INC., priority 2020, dated 2023):
Converted amounts (≈) assume the structure as drawn. Like-named read-outs stand apart in the source and are kept apart here.

Key:
[1] = system: C. parapsilosis (ATCC 22019); conditions: cited from earlier work
C. krusei (ATCC 6258) [2] = conditions: cited from earlier work
C. albicans (ATCC 90028) = experiment: in vitro micro-dilution susceptibility assay (method of Rojas); assay type: cell-based; conditions: for MIC: Candida albicans, read-out: minimum inhibition concentration (MIC)
Method: (§1) The in vitro susceptibility of Malassezia species to roflumilast was determined utilizing three Candida species as internal control isolates for all testing. These three isolates were C. albicans American Type Culture Collection (ATCC) 90028, C. krusei (ATCC 6258) and C. parapsilosis (ATCC 22019). In addition to testing roflumilast all susceptibility assays were conducted using ketoconazole and hydrocortisone as positive and negative control compounds, respectively. All assays were placed within a humidified incubator set to 32° C. for a total of seven days. Each assay was evaluated after 12 hours of incubation and, every 24 hours post incubation for a total of seven days. The assays were evaluated for visual growth of each pathogen in the no treatment control as well as determination of minimum inhibition concentration (MIC) values. The concentration that provides a 3-log10 CFU/mL reduction in fungal burden from baseline at day 0 was defined as the minimum fungicidal concentration (MHC) and was determined by quantifying fungal burdens found in the microplate at day seven.
(§2) The method of Rojas (Rojas F D, et al. Antifungal susceptibility of Malassezia furfur, Malassezia sympodialis, and Malassezia globose to azole drugs and amphotericin B evaluated using a broth microdilution method. 2014. Medical Mycology. 52:641-646) was used in which the liquid broth medium was RPMI 1640 with added 1.8% glucose, 1% peptone, 0.5% ox-bile, 0.5% malt extract, 1% glycerol, 0.5% Tween 40 and 0.05% Tween 80. Round bottom 96 well microplates were used. The inoculums were prepared in sterile saline and diluted to a final targeted concentration of 0.5×10^5 to 2.5×10^5 CFU/mL in supplemented RPMI. […] For the internal control isolate C. parapsilosis (ATCC 22019) the expected CLSI values for ketoconazole of 0.03-0.25 (at 24 hours) and 0.06-0.5 (at 48 hours) did agree with the 2-day value (Table A) of 0.5.

[3] = system: M. globose (ATCC MYA-4889); experiment: as above; assay type: cell-based
Method: as §1, §2

M. furfur (ATCC 44344) = experiment: as above; assay type: cell-based; conditions: for MIC: Malassezia furfur, read-out: minimum inhibition concentration (MIC)
Method: as §1, §2

C. krusei (ATCC 6258) [4] = experiment: as above; assay type: cell-based; conditions: for MIC: Pichia kudriavzevii, read-out: minimum inhibition concentration (MIC)
Method: as §1, §2

M. furfur (ATCC 14521) = experiment: as above; assay type: cell-based; conditions: for MIC: Malassezia furfur, read-out: minimum inhibition concentration (MIC)
Method: as §1, §2

[5] = system: M. restricta (ATCC MYA-4611); experiment: as above; assay type: cell-based
Method: as §1, §2

[6] = system: C. parapsilosis (ATCC 22019); experiment: as above; assay type: cell-based; conditions: C. parapsilosis (22019); for MIC: Lodderomyces parapsilosis, read-out: minimum inhibition concentration (MIC)
Method: as §1, §2

M. furfur (ATCC 12078) = experiment: as above; assay type: cell-based; conditions: for MIC: Malassezia furfur, read-out: minimum inhibition concentration (MIC)
Method: as §1, §2

CC(=O)N1CCN(c2ccc(OCC3COC(Cn4ccnc4)(c4ccc(Cl)cc4Cl)O3)cc2)CC1 (centres unmarked) [Ketoconazole]
expected CLSI values ([1]; at 24 hours): 0.03-0.25
expected CLSI values ([1]; at 48 hours): 0.06-0.5
CLSI expected values (C. krusei (ATCC 6258) [2]; at 24 hours): 0.12-1
CLSI expected values (C. krusei (ATCC 6258) [2]; at 48 hours): 0.25-1
MIC (C. albicans (ATCC 90028); ATCC90028, 24 h, Time 1 days): 0.06 µg/mL (≈ 0.113 µM)
MIC (C. albicans (ATCC 90028); ATCC90028, 48 h, Time 2 days): 0.06 µg/mL (≈ 0.113 µM)
MIC (C. albicans (ATCC 90028); ATCC90028, 72 h, Time 3 days): 0.125 µg/mL (≈ 0.235 µM)
MIC (C. albicans (ATCC 90028); ATCC90028, 96 h, Time 4 days): 0.25 µg/mL (≈ 0.47 µM)
MIC (C. albicans (ATCC 90028); ATCC90028, 120 h, Time 5 days): 0.25 µg/mL (≈ 0.47 µM)
MIC (C. albicans (ATCC 90028); ATCC90028, 144 h, Time 6 days): 0.25 µg/mL (≈ 0.47 µM)
MIC (C. albicans (ATCC 90028); ATCC90028, 168 h, Time 7 days): 0.25 µg/mL (≈ 0.47 µM)
minimum inhibition concentration (MIC) (C. albicans (ATCC 90028); Time 0.5 days): NGO
minimum inhibition concentration (MIC) ([3]; Time 0.5 days): NGO
minimum inhibition concentration (MIC) ([3]; Time 1 days): NGO
minimum inhibition concentration (MIC) ([3]; Time 2 days): NGO
minimum inhibition concentration (MIC) ([3]; Time 3 days): NGO
minimum inhibition concentration (MIC) ([3]; Time 4 days): NGO
minimum inhibition concentration (MIC) ([3]; Time 5 days): NGO
minimum inhibition concentration (MIC) ([3]; Time 6 days): NGO
minimum inhibition concentration (MIC) ([3]; Time 7 days): NGO
MIC (M. furfur (ATCC 44344); ATCC44344, 48 h, Time 2 days): 0.125 µg/mL (≈ 0.235 µM)
MIC (M. furfur (ATCC 44344); ATCC44344, 72 h, Time 3 days): 0.125 µg/mL (≈ 0.235 µM)
MIC (M. furfur (ATCC 44344); ATCC44344, 96 h, Time 4 days): 0.125 µg/mL (≈ 0.235 µM)
MIC (M. furfur (ATCC 44344); ATCC44344, 120 h, Time 5 days): 0.25 µg/mL (≈ 0.47 µM)
MIC (M. furfur (ATCC 44344); ATCC44344, 144 h, Time 6 days): 0.25 µg/mL (≈ 0.47 µM)
MIC (M. furfur (ATCC 44344); ATCC44344, 168 h, Time 7 days): 0.125 µg/mL (≈ 0.235 µM)
minimum inhibition concentration (MIC) (M. furfur (ATCC 44344); Time 0.5 days): NGO
minimum inhibition concentration (MIC) (M. furfur (ATCC 44344); Time 1 days): NGO
MIC (C. krusei (ATCC 6258) [4]; ATCC6258, 24 h, Time 1 days): 4 µg/mL (≈ 7.53 µM)
MIC (C. krusei (ATCC 6258) [4]; ATCC6258, 48 h, Time 2 days): 8 µg/mL (≈ 15.1 µM)
MIC (C. krusei (ATCC 6258) [4]; ATCC6258, 72 h, Time 3 days): 16 µg/mL (≈ 30.1 µM)
MIC (C. krusei (ATCC 6258) [4]; ATCC6258, 96 h, Time 4 days): 16 µg/mL (≈ 30.1 µM)
MIC (C. krusei (ATCC 6258) [4]; ATCC6258, 120 h, Time 5 days): 16 µg/mL (≈ 30.1 µM)
MIC (C. krusei (ATCC 6258) [4]; ATCC6258, 144 h, Time 6 days): 32 µg/mL (≈ 60.2 µM)
MIC (C. krusei (ATCC 6258) [4]; ATCC6258, 168 h, Time 7 days): 32 µg/mL (≈ 60.2 µM)
minimum inhibition concentration (MIC) (C. krusei (ATCC 6258) [4]; Time 0.5 days): NGO
MIC (M. furfur (ATCC 14521); ATCC14521, 48 h, Time 2 days): 0.03 µg/mL (≈ 0.0565 µM)
MIC (M. furfur (ATCC 14521); ATCC14521, 72 h, Time 3 days): 0.06 µg/mL (≈ 0.113 µM)
MIC (M. furfur (ATCC 14521); ATCC14521, 96 h, Time 4 days): 0.06 µg/mL (≈ 0.113 µM)
MIC (M. furfur (ATCC 14521); ATCC14521, 120 h, Time 5 days): 0.06 µg/mL (≈ 0.113 µM)
MIC (M. furfur (ATCC 14521); ATCC14521, 144 h, Time 6 days): 0.06 µg/mL (≈ 0.113 µM)
MIC (M. furfur (ATCC 14521); ATCC14521, 168 h, Time 7 days): 0.25 µg/mL (≈ 0.47 µM)
minimum inhibition concentration (MIC) (M. furfur (ATCC 14521); Time 0.5 days): NGO
minimum inhibition concentration (MIC) (M. furfur (ATCC 14521); Time 1 days): NGO
minimum inhibition concentration (MIC) ([5]; Time 0.5 days): NGO
minimum inhibition concentration (MIC) ([5]; Time 1 days): NGO
minimum inhibition concentration (MIC) ([5]; Time 2 days): NGO
minimum inhibition concentration (MIC) ([5]; Time 3 days): NGO
minimum inhibition concentration (MIC) ([5]; Time 4 days): NGO
minimum inhibition concentration (MIC) ([5]; Time 5 days): NGO
minimum inhibition concentration (MIC) ([5]; Time 6 days): NGO
minimum inhibition concentration (MIC) ([5]; Time 7 days): NGO
minimum inhibition concentration (MIC) ([6]; Time 0.5 days): NGO
MIC ([6]; ATCC22019, 24 h, Time 1 days): 0.5 µg/mL (≈ 0.941 µM)
MIC ([6]; ATCC22019, 48 h, Time 2 days): 0.5 µg/mL (≈ 0.941 µM)
MIC ([6]; ATCC22019, 72 h, Time 3 days): 0.5 µg/mL (≈ 0.941 µM)
MIC ([6]; ATCC22019, 96 h, Time 4 days): 0.5 µg/mL (≈ 0.941 µM)
MIC ([6]; ATCC22019, 120 h, Time 5 days): 1 µg/mL (≈ 1.88 µM)
MIC ([6]; ATCC22019, 144 h, Time 6 days): 1 µg/mL (≈ 1.88 µM)
MIC ([6]; ATCC22019, 168 h, Time 7 days): 2 µg/mL (≈ 3.76 µM)
MIC (M. furfur (ATCC 12078); ATCC12078, 48 h, Time 2 days): 0.06 µg/mL (≈ 0.113 µM)
MIC (M. furfur (ATCC 12078); ATCC12078, 72 h, Time 3 days): 0.06 µg/mL (≈ 0.113 µM)
MIC (M. furfur (ATCC 12078); ATCC12078, 96 h, Time 4 days): 0.06 µg/mL (≈ 0.113 µM)
MIC (M. furfur (ATCC 12078); ATCC12078, 120 h, Time 5 days): 0.06 µg/mL (≈ 0.113 µM)
MIC (M. furfur (ATCC 12078); ATCC12078, 144 h, Time 6 days): 0.06 µg/mL (≈ 0.113 µM)
MIC (M. furfur (ATCC 12078); ATCC12078, 168 h, Time 7 days): 0.25 µg/mL (≈ 0.47 µM)
minimum inhibition concentration (MIC) (M. furfur (ATCC 12078); Time 0.5 days): NGO
minimum inhibition concentration (MIC) (M. furfur (ATCC 12078); Time 1 days): NGO
